# In ChEMBL document CHEMBL3044530, “A simple synthesis of trans-3,4,5-trimethoxycinnamamides and evaluation of their biologic activity” (2013):
# Active and inactive are the calls of the source. No cut-off for these calls is given here.
# Experiments:
# Assay type in all cases: functional
# Mus musculus = test: Antinarcotic activity in morphine-dependent C57BL/6 Mus musculus (mouse) assessed as decrease in naloxane-induced jumping frquency at 20 mg/kg, ip administered QD at 30 min prior to morphine-injection for 7 days followed by naloxane-challenge at 6 hr after last morphine-injection relative to control; design: scale not given: the % may be the effect or the level left
# [1] = test system: Radical scavenging activity; test: Antioxidant activity assessed as DPPH radical scavenging activity at 1 mM after 25 min by spectrophotometric analysis
# Cortical neurone = test: Neuroprotective activity in ICR Mus musculus (mouse) cortical neurons assessed as protection against glutamate-induced toxicity at 5 to 20 uM after 24 hr by LDH assay
SMILES,Activity (Mus musculus; route intraperitoneal) [%],Activity [1] [%],Activity (Cortical neurone),Activity (Mus musculus)
COc1cc(/C=C/C(=O)N2CCOCC2)cc(OC)c1OC,80,> 20,,
COc1cc(/C=C/C(=O)N2CCN(C(=O)/C=C/c3cc(OC)c(OC)c(OC)c3)CC2)cc(OC)c1OC,80,,,
COc1cc(/C=C/C(=O)NCCO)cc(OC)c1OC,80,> 20,Active,
COc1cc(/C=C/C(=O)N2CCN(C(=O)c3ccccc3)CC2)cc(OC)c1OC,80,> 20,Active,
COc1cc(/C=C/C(=O)O)cc(OC)c1OC,,,,Active
COc1cc(/C=C/C(=O)NCCCN2CCCC2=O)cc(OC)c1OC,80,> 20,,
COc1cc(/C=C/C(=O)N2CCSCC2)cc(OC)c1OC,80,> 20,Active,
